Test system: N-linked glycosylation (OST) in CHO-ER-LucT cells
Experiment: CHO-ER-LucT luminescence assay for inhibition of N-linked glycosylation
Assay type: cell-based
Details: for Emax: 24 h, [compound's fold change-1.0 (DMSO)]/[NGI-1 fold change-1.0 (DMSO)]*100, read-out: Max activity (% NGI-1); for AC50: CHO-ER-LucT cells, 24 hrs exposure, seven-point dose dilution, luminescence
Protocol: The CHO-ER-LucT cells have been previously described (Contessa et al., 2010, Clinical Cancer Research, 16(12):3205-14) and are used for testing analog IC50 for inhibition of N-linked glycosylation in 96 or 384 well plate format. In these cells induction of luminescence is dependent on inhibition of glycosylation (and OST inhibition), and is determined after 24 hrs of exposure to the analog following the addition of luciferin substrate. The luminescent signal is then quantified using standard plate readers that detect luminescence (e.g., Biotek synergy). Experiments are performed over a seven-point dose dilution to generate dose response data and to identify IC50 values and maximal activity compared to controls. Data is transformed to log 10 values to generate a sigmoidal shaped dose response curve and fitted using nonlinear regression (curve fit) in GraphPad Prism7.
All HL compounds were tested in CHO-ER-LucT cells. IC50 (AC50) was estimated in following method: Concentration X is converted to logarithm (log10) to generate sigmoidal shape curve and dose response curve is generated using Nonlinear regression (curve fit) in Prism. EC50 (AC50) is calculated using log(agonist) vs response-(three parameters)] which uses standard Hill slope (=1).
Max activity: [compound's fold change−1.0 (DMSO)]/[NGI−1 fold change−1.0 (DMSO)]*100(%) (Eq. 1)

SMILES | Emax [%] | AC50 [nM]
CCc1cnc(NC(=O)c2cc(S(=O)(=O)N(C)C)ccc2N(C)C(C)C)s1 [Example 14, 5-(N,N-dimethylsulfamoyl)-N-(5-ethylthiazol-2-yl)-2-(isopropyl(methyl)amino)benzamide] | 128 | 372
CN(c1ccc(S(=O)(=O)N(C)C)cc1C(=O)Nc1nc2c(s1)COCC2)C1CCCC1 | 46.2 | 1020
CCc1cnc(NC(=O)c2cc(S(=O)(=O)N3CCOCC3)ccc2N2CCC(F)(F)C2)s1 [Example 36, 2-(3,3-difluoropyrrolidin-1-yl)-N-(5-ethylthiazol-2-yl)-5-(morpholinosulfonyl)benzamide] | 137 | 591
CCc1cnc(NC(=O)c2cc(S(=O)(=O)N3CCOCC3)ccc2N(C)C2CC2)s1 | 129 | 2500
CCc1cnc(NC(=O)c2cc(S(=O)(=O)CC3CC3)ccc2N(C)C2CCCC2)s1 | 89.9 | 1530
CCc1csc(NC(=O)c2cc(S(=O)(=O)N3CCOCC3)ccc2N(C)CC2CC2)n1 [Example 20, 2-((cyclopropylmethyl)(methyl)amino)-N-(4-ethylthiazol-2-yl)-5-(morpholinosulfonyl)benzamide] | 94.2 | 548
CCc1cnc(NC(=O)c2cc(S(=O)(=O)N(C)C)ccc2N(CC)CC)s1 [Comparator, reference compound] | 46.8 | 3360
C=CCN(C)c1ccc(S(=O)(=O)N(C)C)cc1C(=O)Nc1ncc(CC)s1 | 108 | 1100
Cc1cnc(NC(=O)c2cc(S(=O)(=O)N(C)C)cnc2N2CCCC2)s1 | 50.4 | 70400
CCc1cnc(NC(=O)c2cc(S(=O)(=O)N(C)C)ccc2N(C)C2CCC2)s1 [Example 15, 2-(cyclobutyl(methyl)amino)-5-(N,N-dimethylsulfamoyl)-N-(5-ethylthiazol-2-yl)benzamide] | 141 | 252
CCc1cnc(NC(=O)c2cc(S(=O)(=O)N3CCOCC3)ccc2N(C)C2CCC2)s1 [Example 7, 2-(cyclobutyl(methyl)amino)-N-(5-ethylthiazol-2-yl)-5-(morpholinosulfonyl)benzamide] | 138 | 243
CCc1cnc(NC(=O)c2cc(S(=O)(=O)N3CCOCC3)c(F)cc2N(C)CC2CC2)s1 [Example 30, 2-((cyclopropylmethyl)(methyl)amino)-N-(5-ethylthiazol-2-yl)-4-fluoro-5-(morpholinosulfonyl)benzamide] | 96.4 | 371
Cc1nc(NC(=O)c2cc(S(=O)(=O)N(C)C)cc(F)c2N2CCCC2)sc1C [Example 29, 5-(N,N-dimethylsulfamoyl)-N-(4,5-dimethylthiazol-2-yl)-3-fluoro-2-(pyrrolidin-1-yl)benzamide] | 62.6 | 4990
CCc1cnc(NC(=O)c2cc(S(=O)(=O)CC3CC3)ccc2N(C)CC2CC2)s1 | 88.3 | 2590
CCc1cnc(NC(=O)c2cc(S(=O)(=O)N(C)C)ccc2N(C)CC2CC2)s1 [Example 12, 2-((cyclopropylmethyl)(methyl)amino)-5-(N,N-dimethylsulfamoyl)-N-(5-ethylthiazol-2-yl)benzamide] | 133 | 77
CCc1cnc(NC(=O)c2cc(S(=O)(=O)N3CCOCC3)nnc2N(C)CC2CC2)s1 [Example 27, 3-((cyclopropylmethyl)(methyl)amino)-N-(5-ethylthiazol-2-yl)-6-(morpholinosulfonyl)pyridazine-4-carboxamide] | 13.3 | 115
Cc1nc(NC(=O)c2cc(S(=O)(=O)N3CCOCC3)ccc2N(C)CC2CC2)sc1C [Example 10, 2-((cyclopropylmethyl)(methyl)amino)-N-(4,5-dimethylthiazol-2-yl)-5-(morpholinosulfonyl)benzamide] | 88.7 | 128
CCc1cnc(NC(=O)c2cc(S(=O)(=O)N(C)C)ccc2N(C)C2CCCC2)s1 [Example 2, 2-(cyclopentyl(methyl)amino)-5-(N,N-dimethylsulfamoyl)-N-(5-ethylthiazol-2-yl)benzamide] | 129 | 120
Cc1nc(NC(=O)c2cc(S(=O)(=O)N(C)C)ccc2N(C)C)sc1C | 33.9 | 27900
CCc1cnc(NC(=O)c2nc(S(=O)(=O)N3CCOCC3)ccc2N(C)CC2CC2)s1 [Example 28, 3-((cyclopropylmethyl)(methyl)amino)-N-(5-ethylthiazol-2-yl)-6-(morpholinosulfonyl)picolinamide] | 33.3 | 7920
Cc1cnc(NC(=O)c2cc(S(=O)(=O)N(C)C)cc(F)c2N2CCCC2)s1 | 114 | 36900

SMILES | Emax [%] | AC50 [nM]
C=CCN(C)c1ccc(S(=O)(=O)N2CCOCC2)cc1C(=O)Nc1ncc(CC)s1 [Example 8, 2-(allyl(methyl)amino)-N-(5-ethylthiazol-2-yl)-5-(morpholinosulfonyl)benzamide] | 102 | 446
Cc1ccc(NC(=O)c2cc(S(=O)(=O)N(C)C)cnc2N2CCCC2)cc1 | 14.9 | 94500
CCc1cnc(NC(=O)c2cc(S(=O)(=O)N3CCOCC3)ccc2N(C)CC)s1 | 130 | 620
Cc1nc(NC(=O)c2cc(S(=O)(=O)CC3CC3)ccc2N(C)C2CCCC2)sc1C | 41 | 2430
CN(CC1CC1)c1ncc(S(=O)(=O)N(C)C)cc1C(=O)Nc1nc2c(s1)COCC2 [Example 24, 2-((cyclopropylmethyl)(methyl)amino)-N-(6,7-dihydro-4H-pyrano[4,3-d]thiazol-2-yl)-5-(N,N-dimethylsulfamoyl)nicotinamide] | 43 | 17300
CCc1cnc(NC(=O)c2cc(S(=O)(=O)N(C)C)ccc2N(C)C2CCCCC2)s1 [Example 11, 2-(cyclohexyl(methyl)amino)-5-(N,N-dimethylsulfamoyl)-N-(5-ethylthiazol-2-yl)benzamide] | 52.9 | 248
CCc1cnc(NC(=O)c2cc(S(=O)(=O)N3CCOCC3)ccc2N(C)C2CCCCC2)s1 [Example 6, 2-(cyclohexyl(methyl)amino)-N-(5-ethylthiazol-2-yl)-5-(morpholinosulfonyl)benzamide] | 148 | 215
Cc1nc(NC(=O)c2cc(S(=O)(=O)N(C)C)ccc2N2CCC(F)(F)C2)sc1C [Example 34, 2-(3,3-difluoropyrrolidin-1-yl)-5-(N,N-dimethylsulfamoyl)-N-(4,5-dimethylthiazol-2-yl)benzamide] | 76.9 | 738
CCc1cnc(NC(=O)c2cc(S(=O)(=O)N(C)C)ccc2N(C)CC)s1 [Example 13, 5-(N,N-dimethylsulfamoyl)-2-(ethyl(methyl)amino)-N-(5-ethylthiazol-2-yl)benzamide] | 114 | 294
Cc1csc(NC(=O)c2cc(S(=O)(=O)N(C)C)ccc2N2CCC(F)(F)C2)n1 [Example 35, 2-(3,3-difluoropyrrolidin-1-yl)-5-(N,N-dimethylsulfamoyl)-N-(4-methylthiazol-2-yl)benzamide] | 70 | 3000
Cc1cnc(NC(=O)c2cc(S(=O)(=O)N(C)C)ccc2N(C)C2CCCC2)s1 [Example 17, 2-(cyclopentyl(methyl)amino)-5-(N,N-dimethylsulfamoyl)-N-(5-methylthiazol-2-yl)benzamide] | 102 | 361
Cc1nc(NC(=O)c2cc(S(=O)(=O)N3CCOCC3)ccc2N(C)C2CC2)sc1C | 36.7 | 2530
Cc1sc(NC(=O)c2cc(S(=O)(=O)N3CCOCC3)ccc2N(C)CC2CC2)nc1-c1ccccc1 [Example 19, 2-((cyclopropylmethyl)(methyl)amino)-N-(5-methyl-4-phenylthiazol-2-yl)-5-(morpholinosulfonyl)benzamide] | 66.2 | 563
CCc1cnc(NC(=O)c2cc(S(=O)(=O)N(C)C)ccc2N(C)C)s1 | 46.1 | 6850
CCc1cnc(NC(=O)c2cc(S(=O)(=O)N(C)C)ccc2N(C)C2CC2)s1 | 86.8 | 1190
CCc1cnc(NC(=O)c2cc(S(=O)(=O)N(C)C)ccc2N2CCC(F)(F)C2)s1 [Example 37, 2-(3,3-difluoropyrrolidin-1-yl)-5-(N,N-dimethylsulfamoyl)-N-(5-ethylthiazol-2-yl)benzamide] | 126 | 565
CCc1cnc(NC(=O)c2cc(S(=O)(=O)N(C)C)ccc2N(C)CC2CCC2)s1 [Example 16, 2-((cyclobutylmethyl)(methyl)amino)-5-(N,N-dimethylsulfamoyl)-N-(5-ethylthiazol-2-yl)benzamide] | 82.2 | 744
CN(CC1CC1)c1ccc(S(=O)(=O)N2CCOCC2)cc1C(=O)Nc1ncc(Cc2ccccc2)s1 | 116 | 13000
Cc1nc(NC(=O)c2cc(S(=O)(=O)N(C)C)ccc2N(C)C2CC2)sc1C | 43.9 | 3440
Cc1nc(NC(=O)c2cc(S(=O)(=O)N(C)C)cnc2N(C)C2CCCC2)sc1C [Example 21, 2-(cyclopentyl(methyl)amino)-5-(N,N-dimethylsulfamoyl)-N-(4,5-dimethylthiazol-2-yl)nicotinamide] | 101 | 970
